Like-named read-outs stand apart in the source and are kept apart here.
Key:
[1] = molecular target: T1, HDAC8 (Homo sapiens, UniProt Q9BY41); set-up: method as in PMID 33570940; settings: cited from earlier work
T1 sequence (Q9BY41 1-377): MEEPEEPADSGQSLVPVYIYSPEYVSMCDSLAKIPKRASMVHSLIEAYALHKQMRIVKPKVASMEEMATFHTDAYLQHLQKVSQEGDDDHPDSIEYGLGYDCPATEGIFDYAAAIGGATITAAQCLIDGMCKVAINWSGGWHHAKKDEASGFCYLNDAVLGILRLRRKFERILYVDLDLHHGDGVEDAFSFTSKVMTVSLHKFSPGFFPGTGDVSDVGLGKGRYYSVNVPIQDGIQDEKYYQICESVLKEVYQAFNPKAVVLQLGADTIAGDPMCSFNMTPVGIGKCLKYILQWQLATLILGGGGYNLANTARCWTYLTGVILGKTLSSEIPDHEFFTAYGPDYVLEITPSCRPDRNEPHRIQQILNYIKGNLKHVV

[2] = tested on: HeLa nuclear HDACs; set-up: method as in PMID 33845233; settings: introduction, earlier work; read-out: IC50 class I HDACs; cited from earlier work
[3] = tested on: HeLa nuclear HDACs; assay: HDAC inhibition assay, HeLa nuclear extract (mixture of class I HDACs 1, 2, and 3); settings: read-out: IC50 HeLa nuclear HDACs, Boc-Lys-(AMC) substrate
[4] = tested on: SCM-1 cells; assay: Cell viability (MTT) assay, SCM-1; assay type: cell-based; settings: human gastric cancer cells, read-out: IC50 of cytotoxicity SCM-1
Text: (§1) Human breast cancer MDA-MB-231 cells and gastric cancer SCM-1 cells were purchased from the American Type Culture Collection (Manasas, VA, USA). SCC2095 human oral cancer cells were kindly provided by Professor Susan R. Mallery (The Ohio State University). Normal human lung fibroblasts (NHLFs; CC-2512) were purchased from the Lonza (Walkersville, MD, USA). SCM-1 cells were maintained in RPMI-1640 medium (Invitrogen, Carlsbad, CA, USA); MDA-MB-231 and SCC2095 cells were maintained in DMEM/F12 (Invitrogen); and NHLFs were maintained in FGM™-2 medium (Lonza) with 2% serum, supplemented with 10% heat-inactivated foetal bovine serum (FBS; Gibco, Grand Island, NY, USA). All cells were cultured at 37 °C in a humidified incubator containing 5% CO2 and 95% relative humidity.
(§2) To assess cell viability, cells were seeded in three replicates into 96-well plates at a density of 5×10^3/well for 24 h following incubation with compounds at the indicated concentrations. Then, cell viability was assessed with 3–(4,5-dimethylthiazol-2-yl)-2,5-diphenyltetrazolium bromide (MTT) solution (0.5 mg/mL) for 4h as described previously. After removing the medium, 200 µL of DMSO was added, and then the absorbance was measured at 570 nm using a plate reader (BMG LABTECH, Germany).

[5] = tested on: MDA-MB-231 cells; assay: Cell viability (MTT) assay, MDA-MB-231; assay type: cell-based; settings: human breast cancer cells, read-out: IC50 of cytotoxicity MDA-MB-231
Text: as §1, §2

In the case of `O=C(NO)c1ccc(CN2C(=O)c3ccccc3S2(=O)=O)cc1-c1ccccc1` [Compound 1], the IC50 [1] is given as 70 nM.
For `NC(=O)c1ccc2c(c1)N(Cc1ccc(C(=O)NO)cc1)c1ccccc1S2` [LH4f, reference compound], the IC50 [2] is listed as 100 nM and the IC50 [3] is listed as 100 ± 20 nM.
Work on `CC(=O)O[C@H]1C(=O)[C@@]2(C)[C@H]([C@H](OC(=O)c3ccccc3)[C@]3(O)C[C@H](OC(=O)[C@H](O)[C@@H](NC(=O)c4ccccc4)c4ccccc4)C(C)=C1C3(C)C)[C@]1(OC(C)=O)CO[C@@H]1C[C@@H]2O` [Paclitaxel, reference compound] yielded an IC50 [4] of 80 ± 10 nM.
In the case of `CC/C(=C(\c1ccccc1)c1ccc(OCCN(C)C)cc1)c1ccccc1` [Tamoxifen, reference compound], the IC50 [5] is reported as 11.4 ± 0.9 µM.

Reference: article PMC11423540, “Synthesis and biological evaluation of ortho-phenyl phenylhydroxamic acids containing phenothiazine with improved selectivity for class IIa histone deacetylases” (Journal of Enzyme Inhibition and Medicinal Chemistry, 2024)
